Test results reported in patent US8772304B2, “Benzimidazole inhibitors of leukotriene production” (Boehringer Ingelheim International GmbH, priority 2010, dated 2014).
Each block holds one molecule with its values, some of them ahead of it.

Legend:
[1] = test system: biomarkers for myocardial infarction risk; conditions: clinical trial; cited from earlier work
[2] = molecular target: recombinant human FLAP protein (Homo sapiens (Human), UniProt P20292); test: FLAP binding assay (Scintillation Proximity Assay, displacement of iodinated FLAP inhibitor); conditions: displacement of [125I]L-691,831; membranes of sf9 cells expressing recombinant human FLAP; read-out: hFLAP binding IC50
Chain of recombinant human FLAP protein (P20292 whole entry): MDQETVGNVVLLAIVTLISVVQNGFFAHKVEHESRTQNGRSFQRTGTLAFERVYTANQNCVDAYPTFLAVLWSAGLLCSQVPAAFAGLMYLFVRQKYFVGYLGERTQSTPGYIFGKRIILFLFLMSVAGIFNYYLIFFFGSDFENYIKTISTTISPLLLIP
Method: Compounds are assessed for the ability to bind to FLAP in a binding assay that measures compound-specific displacement of an iodinated (^125I) FLAP inhibitor via a Scintillation Proximity Assay format (adapted from S. Charleson et al., Mol. Pharmacol., 1992, 41, 873-879).
Cell pellets produced from sf9 insect cells expressing recombinant human FLAP protein are resuspended in buffer A [15 mM Tris-HCl (pH 7.5), 2 mM MgCl2, 0.3 mM EDTA, 1 mM PMSF]. The cells are lysed with a Dounce homogenizer and the material is centrifuged at 10,000×g for 10 minutes. The supernatant is then collected and centrifuged at 100,000×g for 60 minutes. To prepare membrane protein for an assay, an aliquot of the 100,000×g pellet is resuspended in 1 ml of buffer A, Dounce homogenized, and finally subjected to polytron mixing (30 seconds). Membrane protein (25 μl, 5 μg) is mixed with WGA SPA beads (Amersham) and stirred for 1 h. […] (final concentrations: beads, 200 μg/well; protein, 5 μg/well; [^125I] probe, 0 08 nM/well (17 nCi/well). The plates are shaken for 2 h before reading on a Microbeta plate reader. Non-specific binding is determined by the addition of 10 μM cold L-691,831 compound.

[3] = test system: synthesis of LTB4 in human whole blood; test: human whole blood LTB4 production inhibition assay; format: cell-based; conditions: heparinized human whole blood, calcimycin 20 μM stimulation, plasma LTB4; read-out: hWB IC50
Method: Compounds are additionally tested in a human whole blood assay to determine their ability to inhibit the synthesis of LTB4 in a cellular system. Compounds are combined with heparinized human whole blood and incubated for 15 minutes at 37° C. Calcimycin (20 μM final, prepared in phosphate-buffered saline, pH 7.4) is then added and the mixture is incubated for another 30 minutes at 37° C. The samples are centrifuged for 5 min at low speed (1500×g) and the plasma layer is removed. Plasma LTB4 concentrations are then measured using an antibody-based homogenous time-resolved fluorescence method (CisBio, Bedford, Mass.).

proteinuria = conditions: clinical trial, human glomerulonephritis; cited from earlier work
atherosclerotic plaque [4] = conditions: infusion, ApoE−/−xCD4dnTβRII mice, treated for four weeks; cited from earlier work
atherosclerotic plaque [5] = conditions: oral dosing, apoE/LDL-R double knockout mice, high-fat diet from 2 to 6 months of age; cited from earlier work

SMILES: O=C(O)[C@@H](c1ccc(OCc2ccc3ccccc3n2)cc1)C1CCCC1 [DG-031]
effect on biomarkers for myocardial infarction risk [1]: dose-dependent suppression of several biomarkers

IC50 [2]: 23 nM
IC50 [3]: 667 nM
SMILES: CCC(C)(C)n1c(-c2cc(Br)cnc2-n2cncn2)nc2cc(-c3cnc(N)nc3)ccc21 [Example 27, 5-[2-(5-Bromo-2-1,2,4-triazol-1-yl-pyridin-3-yl)-1-(1,1-dimethyl-propyl)-1H-benzimidazol-5-yl]-pyrimidin-2-ylamine]

IC50 [2]: 17 nM
IC50 [3]: 194 nM
SMILES: Cc1ccc(-c2nc3cc(-c4cnc(N)nc4)ccc3n2C(C)(C)C)c(-n2cncn2)n1 [Example 28, 5-[1-tert-Butyl-2-(6-methyl-2-1,2,4-triazol-1-yl-pyridin-3-yl)-1H-benzimidazol-5-yl]-pyrimidin-2-ylamine]

SMILES: CC(C)(C)Sc1c(CC(C)(C)C(=O)O)n(Cc2ccc(Cl)cc2)c2ccc(OCc3ccc4ccccc4n3)cc12 [MK-591]
effect on proteinuria (proteinuria): reduce proteinuria

SMILES: CC(C)c1ccc2c(c1)c(SC(C)(C)C)c(CC(C)(C)C(=O)O)n2Cc1ccc(Cl)cc1 [MK-886]
decrease in plaque area in the aortic root (atherosclerotic plaque [4]): ~40%
decrease in plaque coverage in the aorta (atherosclerotic plaque [5]): 56%
decrease in plaque coverage in the aortic root (atherosclerotic plaque [5]): 43%
